Consider 25 compounds from US20240190824A1, “INHIBITORS OF TREK (TWIK RELATED K+ CHANNELS) CHANNEL FUNCTION” (ONO PHARMACEUTICAL CO., LTD., priority 2019, published 2024).

In general, IC50 refers to the concentration at which inhibition is half-maximal. A high value points to a need for much substance.

For the experiment, the target named is human TREK-1 (Homo sapiens (Human), UniProt O95069). Briefly: TREK-1 Thallium (Tl+) flux assay. It counts as cell-based. The note with it: CHO-K1 cells stably expressing human TREK-1.
Chain of human TREK-1 (O95069 whole entry): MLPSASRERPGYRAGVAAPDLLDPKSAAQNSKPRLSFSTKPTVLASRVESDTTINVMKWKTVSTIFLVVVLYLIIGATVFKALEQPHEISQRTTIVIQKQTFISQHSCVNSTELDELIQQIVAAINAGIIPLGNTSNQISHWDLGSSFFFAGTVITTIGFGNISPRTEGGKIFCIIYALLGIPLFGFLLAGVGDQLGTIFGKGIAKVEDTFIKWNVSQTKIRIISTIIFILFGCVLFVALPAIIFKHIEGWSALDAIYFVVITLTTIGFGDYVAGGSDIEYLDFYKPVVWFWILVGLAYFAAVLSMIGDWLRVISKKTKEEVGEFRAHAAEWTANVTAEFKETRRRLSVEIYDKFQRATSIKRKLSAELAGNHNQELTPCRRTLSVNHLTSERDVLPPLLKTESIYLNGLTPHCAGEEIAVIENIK
`Cc1cc(C#Cc2ccccc2)cnc1NC(=O)c1cc(NC(=O)OC(C)(C)C)ccc1Cl` [Compound 28, tert-butyl N-[4-chloro-3-[[3-methyl-5-(2-phenylethynyl)-2-pyridyl]carbamoyl]phenyl]carbamate] showed an IC50 of 140 nM. `Cc1cc(C#Cc2ccccc2)cnc1NC(=O)c1cc(NC(=O)C2COCCO2)ccc1Cl` (stereo not shown) [Compound 31, N-[4-chloro-3-[[3-methyl-5-(2-phenylethynyl)-2-pyridyl]carbamoyl]phenyl]-1,4-dioxane-2-carboxamide] had an IC50 of 260 nM. For `O=C(Nc1ncc(C#Cc2ccccc2)cc1F)c1cc(NC(=O)C2(F)CC2)ccc1Cl` [Compound 6, 2-chloro-5-[(1-fluorocyclopropanecarbonyl)amino]-N-[3-fluoro-5-(2-phenylethynyl)-2-pyridyl]benzamide], half-maximal inhibition (IC50) required 170 nM. As to `Cn1cc(-c2ccc(Cl)c(C(=O)Nc3ncc(C#Cc4ccccc4)cc3F)c2)cn1` [Compound 59, 2-chloro-N-[3-fluoro-5-(2-phenylethynyl)-2-pyridyl]-5-(1-methylpyrazol-4-yl)benzamide], the IC50 is 130 nM. `Cc1cc(C#Cc2ccccc2)cnc1NC(=O)c1cc(C(=O)N2CC(O)C2)ccc1Cl` [Compound 71, 2-chloro-5-(3-hydroxyazetidine-1-carbonyl)-N-[3-methyl-5-(2-phenylethynyl)-2-pyridyl]benzamide]: the IC50 came to 300 nM.

`Cc1cc(C#Cc2ccccc2)cnc1NC(=O)c1cc(OC[C@H]2COCCO2)ccc1Cl` [Compound 21, 2-chloro-5-[[(2R)-1,4-dioxan-2-yl]methoxy]-N-[3-methyl-5-(2-phenylethynyl)-2-pyridyl]benzamide] displayed an IC50 of 110 nM.

In the case of `Cc1cc(C#Cc2ccccc2)cnc1NC(=O)c1c(Cl)ccc(NC(=O)OC(C)(C)C)c1F` [Compound 34, tert-butyl N-[4-chloro-2-fluoro-3-[[3-methyl-5-(2-phenylethynyl)-2-pyridyl]carbamoyl]phenyl]carbamate], half-maximal inhibition (IC50) was put at 360 nM. Regarding `Cc1cc(-c2ccc(-c3ccccc3)s2)cnc1NC(=O)c1cc(NC(=O)OC(C)(C)C)ccc1Cl` [Compound 99, tert-butyl N-[4-chloro-3-[[3-methyl-5-(5-phenyl-2-thienyl)-2-pyridyl]carbamoyl]phenyl]carbamate], the IC50 came to 1830 nM. Compound `Cc1cc(C#Cc2ccc(F)cc2)cnc1NC(=O)c1cc(NC(=O)C2CCO2)ccc1Cl` (stereo not shown) [Compound 12, N-[4-chloro-3-[[5-[2-(4-fluorophenyl)ethynyl]-3-methyl-2-pyridyl]carbamoyl]phenyl]oxetane-2-carboxamide] came in with an IC50 of 310 nM. The figure for `Cc1cc(C#Cc2ccccc2)cnc1NC(=O)c1cc(C#N)ccc1Cl` [Compound 53, 2-chloro-5-cyano-N-(3-methyl-5-(phenylethynyl)pyridin-2-yl)benzamide] is 810 nM. `Cc1ncc(-c2ccc(Cl)c(C(=O)Nc3ncc(C#Cc4ccccc4)cc3C)c2)s1` [Compound 75, 2-chloro-N-[3-methyl-5-(2-phenylethynyl)-2-pyridyl]-5-(2-methylthiazol-5-yl)benzamide] returned an IC50 of 450 nM. `Cc1cc(C#Cc2ccccc2)cnc1NC(=O)c1cc(OCCN2CCOCC2)ccc1Cl` [Compound 84, 2-chloro-N-[3-methyl-5-(2-phenylethynyl)-2-pyridyl]-5-(2-morpholinoethoxy)benzamide] came in with an IC50 of 420 nM.

`Cc1cc(C#Cc2ccccc2)cnc1N1Cc2ccc(OCC3COCCO3)cc2C1=O` (stereo not shown) [Compound 81, 6-(1,4-dioxan-2-ylmethoxy)-2-[3-methyl-5-(2-phenylethynyl)-2-pyridyl]isoindolin-1-one]: the IC50 turned out to be 360 nM. `Cc1cc(C#Cc2ccccc2)cnc1NC(=O)c1cc(NC(=O)[C@H]2C[C@@H]2C)ccc1Cl` [Compound 27, 2-chloro-5-[[(1S,2S)-2-methylcyclopropanecarbonyl]amino]-N-[3-methyl-5-(2-phenylethynyl)-2-pyridyl]benzamide] displayed an IC50 of 100 nM.

`Cc1noc(-c2ccc(Cl)c(C(=O)Nc3ncc(C#Cc4ccccc4)cc3C)c2)n1` [Compound 63, 2-chloro-5-(3-methyl-1,2,4-oxadiazol-5-yl)-N-[3-methyl-5-(2-phenylethynyl)-2-pyridyl]benzamide] came in with an IC50 of 200 nM. In turn, `Cc1cc(C#Cc2ccccc2)cnc1NC(=O)c1cc(NC(=O)C2CC2)ccc1Cl` [Compound 9, 2-chloro-5-(cyclopropanecarbonylamino)-N-[3-methyl-5-(2-phenylethynyl)-2-pyridyl]benzamide] returned an IC50 of 180 nM. `CC(C)(C)OC(=O)Nc1ccc(Cl)c(C(=O)Nc2ncc(-c3cc(-c4ccccc4)no3)cc2F)c1` [Compound 96, tert-butyl N-[4-chloro-3-[[3-fluoro-5-(3-phenylisoxazol-5-yl)-2-pyridyl]carbamoyl]phenyl]carbamate]: the IC50 was found to be 230 nM.

Regarding `Cc1cc(C#Cc2cccnc2)cnc1NC(=O)c1cc(NC(=O)OC(C)(C)C)ccc1Cl` [Compound 41, tert-butyl N-[4-chloro-3-[[3-methyl-5-[2-(3-pyridyl)ethynyl]-2-pyridyl]carbamoyl]phenyl]carbamate], the IC50 was found to be 530 nM. In turn, `Cc1cc(C#Cc2ccccc2)cnc1NC(=O)c1cc(-c2nc(C3CC3)no2)ccc1Cl` [Compound 57, 2-chloro-5-(3-cyclopropyl-1,2,4-oxadiazol-5-yl)-N-[3-methyl-5-(2-phenylethynyl)-2-pyridyl]benzamide] came in with an IC50 of 130 nM.

On to `Cc1cc(OCc2ccccc2)cc(C)c1NC(=O)c1cc(NC(=O)OC(C)(C)C)ccc1Cl` [Compound 88, tert-butyl (3-((4-(benzyloxy)-2,6-dimethylphenyl)carbamoyl)-4-chlorophenyl)carbamate], for which the IC50 is 360 nM. As for `Cc1cc(C#Cc2ccccc2)cnc1NC(=O)c1cc(-c2ccnn2C)ccc1Cl` [Compound 61, 2-chloro-N-[3-methyl-5-(2-phenylethynyl)-2-pyridyl]-5-(2-methylpyrazol-3-yl)benzamide], half-maximal inhibition (IC50) required 160 nM. With `CC(C)(C)OC(=O)Nc1ccc(Cl)c(C(=O)Nc2ncc(-c3cnn(-c4ccccc4)c3)cc2F)c1` [Compound 97, tert-butyl N-[4-chloro-3-[[3-fluoro-5-(1-phenylpyrazol-4-yl)-2-pyridyl]carbamoyl]phenyl]carbamate], the 50% inhibitory concentration (IC50) came to 290 nM. Turning to `O=C(Nc1ncc(C#Cc2ccccc2)cc1F)c1cc(-c2cnn(C3CCOCC3)c2)ccc1Cl` [Compound 55, 2-chloro-N-[3-fluoro-5-(2-phenylethynyl)-2-pyridyl]-5-(1-tetrahydropyran-4ylpyrazol-4-yl)benzamide], half-maximal inhibition (IC50) required 100 nM. The figure for `Cc1cc(C#Cc2ccccc2)cnc1NC(=O)c1cc(C(=O)N2CC(C)(C)C2)ccc1Cl` [Compound 60, 2-chloro-5-(3,3-dimethylazetidine-1-carbonyl)-N-[3-methyl-5-(2-phenylethynyl)-2-pyridyl]benzamide] is 140 nM; for `Cc1cc(C#Cc2ccccc2)cnc1NC(=O)c1cc(C(=O)N2CC(F)(F)C2)ccc1Cl` [Compound 16, 2-chloro-5-(3,3-difluoroazetidine-1-carbonyl)-N-[3-methyl-5-(2-phenylethynyl)-2-pyridyl]benzamide] it is 320 nM.
